Measurements reported in patent US11006595B2, “Rice cultivar designated ‘CL153’” (Board of Supervisors of Louisiana State University and …, priority 2016, dated 2021).

Each compound was assayed on ‘CL153’ rice plant (assay: Herbicide tolerance and susceptibility of rice cultivar 'CL153'). Settings: at levels of the herbicide that would normally inhibit the growth of a rice plant; partly actual observations, partly assumptions based on common ancestry with ‘CL161’.
Type: in vivo, Oryza sativa
Excerpt: Among others, the herbicide tolerance and susceptibility characteristics of ‘CL153’ include or are expected to include the following.
With `COC(=O)c1ccccc1S(=O)(=O)NC(=O)Nc1nc(C)nc(OC)n1` [metsulfuron methyl] the “resistance or sensitivity of ‘CL153’ to the herbicide” value (shortened to “resistance or sensitivity of ‘CL153’”) was “resistant”. In the case of `COC(=O)c1ccccc1S(=O)(=O)NC(=O)Nc1nc(C)cc(C)n1` [sulfometuron methyl], the “resistance or sensitivity of ‘CL153’” value is reported as “sensitive”. `COCc1cnc(C2=NC(C)(C(C)C)C(=O)N2)c(C(=O)O)c1` (centres unmarked) [imazamox] was tested, and the “resistance or sensitivity of ‘CL153’” value was “resistant”. In the case of `CC(C)C1(C)N=C(c2ncccc2C(=O)O)NC1=O` (centres unmarked) [imazapyr], the “resistance or sensitivity of ‘CL153’” value is reported as “resistant”. In the case of `COC(=O)c1ccccc1S(=O)(=O)NC(=O)N(C)c1nc(C)nc(OC)n1` [tribenuron methyl], the “resistance or sensitivity of ‘CL153’” value is reported as “resistant”. In the case of `CCS(=O)(=O)c1cccnc1S(=O)(=O)NC(=O)Nc1nc(OC)cc(OC)n1` [rimsulfuron], the “resistance or sensitivity of ‘CL153’” value is reported as “sensitive”. `Cc1cnc(C2=NC(=O)C(C)(C(C)C)N2)c(C(=O)O)c1` (centres unmarked) [imazapic] was tested, and the “resistance or sensitivity of ‘CL153’” value was “resistant”. In the case of `CC(C)C1(C)N=C(c2nc3ccccc3cc2C(=O)O)NC1=O` (centres unmarked) [imazaquin], the “resistance or sensitivity of ‘CL153’” value is reported as “resistant”. With `COC(=O)c1sccc1S(=O)(=O)NC(=O)Nc1nc(C)nc(OC)n1` [thifensulfuron methyl] the “resistance or sensitivity of ‘CL153’” value was “resistant”. In the case of `CCOC(=O)c1ccccc1S(=O)(=O)NC(=O)Nc1nc(Cl)cc(OC)n1` [chlorimuron ethyl], the “resistance or sensitivity of ‘CL153’” value is reported as “sensitive”. In the case of `COc1cc(OC)nc(NC(=O)NS(=O)(=O)c2ncccc2C(=O)N(C)C)n1` [nicosulfuron], the “resistance or sensitivity of ‘CL153’” value is reported as “resistant”. With `CCc1cnc(C2=NC(C)(C(C)C)C(=O)N2)c(C(=O)O)c1` (centres unmarked) [imazethapyr] the “resistance or sensitivity of ‘CL153’” value was “resistant”.

Same assay, conditions: general statement; profile essentially identical to ‘CL161’
For `COCc1cnc(C2=NC(C)(C(C)C)C(=O)N2)c(C(=O)O)c1` (centres unmarked) [imazamox], the “resistance of ‘CL153’ to imidazolinone herbicides” value was “highly resistant”. In the case of `CCc1cnc(C2=NC(C)(C(C)C)C(=O)N2)c(C(=O)O)c1` (centres unmarked) [imazethapyr], the “resistance of ‘CL153’ to imidazolinone herbicides” value is reported as “highly resistant”.
